Experimental data published in ChEMBL document CHEMBL1156571, “ent-kaurane diterpenoids from the liverwort Jungermannia atrobrunnea” (2008).
In brackets after ≈: the same amount, converted by molar mass.

Tested on: Candida albicans
Test: Antifungal activity against Candida albicans ATCC 10231 after 24 hrs by broth microdilution method
Details: ATCC 10231, 24 h

Row | MIC | SMILES
1 | 128 µg/mL (≈ 372 µM) | C=C1[C@@H]2CC=C3[C@](C2)(C[C@H](O)[C@@H]2C(C)(C)CCC[C@@]32C)[C@@H]1OC(C)=O
2 | 128 µg/mL (≈ 307 µM) | C=C1C(=O)[C@@H]2C3=C(C[C@H](OC(C)=O)[C@@H]4C(C)(C)CC[C@H](OC(C)=O)[C@@]34C)C[C@H]1[C@@H]2O
3 | 128 µg/mL (≈ 342 µM) | C=C1C(=O)[C@@H]2C3=C(C[C@H]1[C@@H]2O)C[C@H](O)[C@@H]1C(C)(C)CC[C@H](OC(C)=O)[C@@]31C
4 | 128 µg/mL (≈ 309 µM) | C=C1C(=O)[C@]23C[C@H]1C(=O)C=C2[C@]1(C)[C@@H](OC(C)=O)CCC(C)(C)[C@H]1[C@@H](OC(C)=O)C3
5 | 128 µg/mL (≈ 307 µM) | C=C1C(=O)[C@@]23C[C@H](OC(C)=O)[C@@H]4C(C)(C)CC[C@H](OC(C)=O)[C@@]4(C)C2=C[C@@H](O)[C@@H]1C3
6 | 128 µg/mL (≈ 342 µM) | C=C1C(=O)[C@@]23C[C@H](OC(C)=O)[C@@H]4C(C)(C)CC[C@H](O)[C@@]4(C)C2=C[C@@H](O)[C@@H]1C3
7 | 128 µg/mL (≈ 307 µM) | CC(=O)O[C@H]1C[C@@]23C[C@@H](C(=O)C=C2[C@]2(C)[C@@H](OC(C)=O)CCC(C)(C)[C@@H]12)[C@@H](C)C3=O
8 | 128 µg/mL (≈ 320 µM) | C=C1[C@H]2C[C@@]3(C[C@H](OC(C)=O)[C@@H]4C(C)(C)CCC[C@@]4(C)C3=CC2=O)[C@@H]1OC(C)=O
9 | 128 µg/mL (≈ 331 µM) | C=C1[C@@H]2CC=C3[C@](C2)(C[C@H](OC(C)=O)[C@@H]2C(C)(C)CCC[C@@]32C)[C@@H]1OC(C)=O

Row | SMILES | MIC
10 | C=C1[C@H]2CC3=C[C@H](OC(C)=O)[C@@H]4C(C)(C)CC[C@H](OC(C)=O)[C@@]4(C)[C@@]34OO[C@]1(O)[C@H]4[C@H]2O [JUNGERMATROBRUNIN A] | 128 µg/mL (≈ 285 µM)
